# Patent US20210113659A1, “ENGINEERED THERAPEUTIC TO ENHANCE CYTOTOXIC ACTIVITY AND PHAGOCYTOSIS IN TUMOR ASSOCIATED MACROPHAGES” (University of Massachusetts, priority 2019, published 2021)
# Test system: 4T1 cells or B16 F10 cells
# Assay: Cytotoxic efficacy using MTS assay
# Assay type: cell-based
# Conditions: lower concentrations, 72 h
# Method: Cytotoxic Efficacy of DNTs Using MTS Assay: 5×10^3 4T1 cells or B16 F10 cells per well were seeded in a 96 well plate and left overnight to adhere. The cells were serum starved for 6 h by incubating them in serum free basal medium. The cells were incubated with either free drugs or DNTs of equivalent free drug concentrations for 72 h. The cells were washed with PBS and the medium was replaced with phenol red free DMEM followed by incubation in a mixture of MTS and PMS (1:20) solution for 30 min. Absorbance was measured at 480 nm using a BioTek plate reader. The data was analyzed using graph pad.
structure (smiles),measurement,value
"CC1(N)CCN(c2cnc(-c3cccc(Cl)c3Cl)c(N)n2)CC1.Cl.Cl [SHP099, 6-(4-Amino-4-methylpiperidin-1-yl)-3-(2,3-dichlorophenyl)pyrazin-2-amine dihydrochloride]",effect on the viability of cancer cells,did not have a significant effect
